{"source": "patent US12441768B2", "about": "“Compositions and methods for treating endometriosis” (EndoMet Biosciences, Inc., priority 2018, dated 2025)", "key": {"[1]": {"test_system": "WNT pathway genes", "assay": "Human WNT Signaling Pathway RT2 Profiler PCR Array in primary cells", "type": "cell-based", "settings": "48 h, compared with ICG001", "method": "On-target activity of each peptide was assessed by the transcriptional activity of WNT pathway genes using Qiagen's Human WNT Signaling Pathway RT^2 Profiler PCR Array). Primary cells were administered the therapeutic peptide corresponding to SEQ ID NO: 42 for 48 h. RNA was extracted from the harvested cells and profiled on the array using rtPCR. The array contains 84 genes related to Wnt-mediated signal transduction, including ligands, receptors, downstream signaling molecules, and regulators of the Wnt canonical pathway, two non-canonical pathways, planar cell polarity, and a calcium ion-dependent pathway, 38 of which were assessed here. Positive control of ICG001, a known Wnt inhibitor, was also run on the RNA array to be used as a comparison."}, "[2]": {"target": "T1, β-catenin and E-Cadherin interaction (Homo sapiens, UniProt P35222)", "T1 sequence (P35222 1-781)": "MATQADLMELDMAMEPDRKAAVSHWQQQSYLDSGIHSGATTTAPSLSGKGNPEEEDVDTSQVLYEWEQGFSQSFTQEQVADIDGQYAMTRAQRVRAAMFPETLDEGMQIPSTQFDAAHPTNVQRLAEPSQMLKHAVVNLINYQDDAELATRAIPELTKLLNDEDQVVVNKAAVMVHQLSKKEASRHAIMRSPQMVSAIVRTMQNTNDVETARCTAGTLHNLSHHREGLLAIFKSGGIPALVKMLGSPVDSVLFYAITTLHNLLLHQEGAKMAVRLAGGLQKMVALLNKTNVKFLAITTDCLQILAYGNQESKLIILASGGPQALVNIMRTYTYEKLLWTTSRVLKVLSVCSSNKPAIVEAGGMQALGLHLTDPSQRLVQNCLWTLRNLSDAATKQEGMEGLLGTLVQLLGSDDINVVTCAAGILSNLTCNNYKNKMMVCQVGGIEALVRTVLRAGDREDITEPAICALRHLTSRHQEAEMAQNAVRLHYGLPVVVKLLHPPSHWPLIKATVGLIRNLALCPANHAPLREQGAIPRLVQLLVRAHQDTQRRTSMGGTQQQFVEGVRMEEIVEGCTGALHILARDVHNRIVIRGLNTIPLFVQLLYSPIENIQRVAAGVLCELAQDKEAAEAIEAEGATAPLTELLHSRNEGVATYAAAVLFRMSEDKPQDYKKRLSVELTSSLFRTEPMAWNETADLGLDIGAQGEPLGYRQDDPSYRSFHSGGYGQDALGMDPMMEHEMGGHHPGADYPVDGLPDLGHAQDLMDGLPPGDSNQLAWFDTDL", "assay": "Competitive binding assay β-catenin / E-Cadherin-FC fusion", "settings": "immobilized biotinylated β-catenin, 50 nM E-Cadherin-FC fusion, varying amounts of peptide", "method": "Competitive binding assays were performed (FIG. 3) wherein biotinylated β-catenin was immobilized on streptavidin plates and 50 nM E-Cadherin-FC fusion was added in the presence of varying amounts of the peptide inhibitors (SEQ ID NO: 42)."}}, "note": "Entries after “also recorded” stand apart in the source; their conditions may differ. Where a SMILES comes first, the peptide text is derived from it."}
{"smiles": "CC[C@H](C)[C@H](NC(=O)[C@H](CC(C)C)NC(=O)[C@H](Cc1ccccc1)NC(=O)[C@H](Cc1c[nH]c2ccccc12)NC(=O)[C@@H](N)CCSC)C(=O)N[C@@H](CS)C(=O)N[C@@H](Cc1ccccc1)C(=O)N[C@@H](Cc1c[nH]c2ccccc12)C(=O)NCC(=O)O", "note": "[SEQ ID NO: 42] (H-MWFLICFWG-OH)", "values": [{"measurement": "Inhibition of gene transcripts within the Wnt pathway", "setting": "[1]", "result": "outperformed the known positive control; also recorded: potent and specific Wnt inhibitor"}, {"measurement": "Inhibition of the β-catenin and E-Cadherin interaction", "setting": "[2]", "result": "None of the doses tested inhibited"}]}
